Row | melting point | SMILES
1 | 250 to 251 °C | COc1cc2c(Oc3ccc4[nH]c(C)cc4c3)ncnc2cc1OCC1CCN(C)C(=O)C1 (stereo not shown) [Example 268, 6-methoxy-4-(2-methylindol-5-yloxy)-7-(1-methyl-2-oxopiperidin-4-ylmethoxy)quinazoline]
2 | 80 to 82 °C | COc1cc2c(Oc3cccc4[nH]ccc34)ncnc2cc1OCCCN1CCCCC1 [Example 169, 4-(indol-4-yloxy)-6-methoxy-7-(3-piperidinopropoxy)quinazoline]
3 | 75 to 77 °C | COc1cc2c(Oc3ccc4[nH]cc(C)c4c3)ncnc2cc1OCCCN1CCCC1 [Example 179, 6-methoxy-4-(3-methylindol-5-yloxy)-7-(3-(pyrrolidin-1-yl)propoxy)quinazoline]
4 | 184 to 185.5 °C | COc1cc2c(Oc3cnc4[nH]ccc4c3)ncnc2cc1OCCCN1CCCC1 [Example 182, 6-methoxy-7-(3-(pyrrolidin-1-yl)propoxy)-4-(1H-pyrrolo[2,3-b]pyridin-5-yloxy)quinazoline]

Source: patent US8492560B2, “Quinazoline derivatives as angiogenesis inhibitors” (AstraZeneca AB, priority 1999, dated 2013)
